Test results: patent US10966426B2, “Herbicidal compositions comprising phenylpyrimidines” (BASF SE, priority 2016, dated 2021)

What was measured:
Assay type in all cases: in vivo
[1] = test system: Lolium multiflorum; test: greenhouse pre-emergence treatment, LOLMU; settings: 20 DAT, LOLMU
Excerpt: (§1) The culture containers used were plastic pots containing loamy sand with approximately 3.0% of humus as substrate. The seeds of the test plants were sown separately for each species.
(§2) For the pre-emergence treatment, the active compounds, suspended or emulsified in water, were applied directly after sowing by means of finely distributing nozzles. The containers were irrigated gently to promote germination and growth and subsequently covered with transparent plastic hoods until the plants had rooted. This cover caused uniform germination of the test plants unless this was adversely affected by the active compounds.
(§3) Depending on the species, the plants were kept at 10-25° C. and 20-35° C., respectively.
(§4) The test period extended over 2 to 4 weeks. During this time, the plants were tended and their response to the individual treatments was evaluated.
(§5) Evaluation was carried out using a scale from 0 to 100. 100 means no emergence of the plants, or complete destruction of at least the above-ground parts, and 0 means no damage or normal course of growth. A good herbicidal activity is given at values of at least 70, and very good herbicidal activity is given at values of at least 85.
(§6) The respective stated components A and B, and if appropriate, C were formulated as a 10% by weight strength emulsion concentrate and, with addition of the amount of solvent system, introduced into the spray liquor used for applying the active compound. In the examples, the solvent used was water.
(§7) In the examples below, using the method of S. R. Colby (1967) “Calculating synergistic and antagonistic responses of herbicide combinations”, Weeds 15, p. 22ff., the value E, which is expected if the activity of the individual active compounds is only additive, was calculated. E=X+Y−(X·Y/100) where X=effect in percent using herbicide A at an application rate a; • Y=effect in percent using herbicide B at application rate b; • E=expected effect (in %) of herbicide A+herbicide B at application rates a+b.

[2] = test system: Helianthus annuus; test: greenhouse pre-emergence treatment, HELAN; settings: HELAN
Excerpt: as §1, §2, §3, §4, §5, §6, §7

[3] = test system: Galium aparine; test: greenhouse pre-emergence treatment, GALAP; settings: GALAP; for % activity, solo application: Table X2
Excerpt: as §1, §2, §3, §4, §5, §6, §7

[4] = test system: Ambrosia elatior; test: greenhouse pre-emergence treatment, AMBEL; settings: AMBEL; for % activity: 21 DAT; for % activity, solo application: Table X2
Excerpt: as §1, §2, §3, §4, §5, §6, §7

[5] = test system: Polygonum convolvulus; test: greenhouse pre-emergence treatment, POLCO; settings: POLCO
Excerpt: as §1, §2, §3, §4, §5, §6, §7

[6] = test system: Brachiaria decumbens; test: greenhouse pre-emergence treatment, BRADC; settings: 20 DAT, BRADC
Excerpt: as §1, §2, §3, §4, §5, §6, §7

[7] = test system: Apera spica-venti; test: greenhouse pre-emergence treatment, APESV; settings: Apera spica-venti, 480 h, 20 DAT, flumioxazin WG 51% solo 3.75 gai/ha
Excerpt: as §1, §2, §3, §4, §5, §6, §7

[8] = test system: Alopecurus myosuroides; test: greenhouse post-emergence treatment, ALOMY; settings: solo, WG 75%, ALOMY, 50 gai/ha, 20 DAT
How it was run: (§8)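 Scoring used a 0 to 100 scale, with 100 denoting no emergence or full destruction of at least the above-ground parts, recorded within a 2 to 4 week test period. Test plants grew in loamy sand containing about 3.0% humus at 10-25° C. or 20-35° C., after direct sowing or transplanting, and received water-based treatments post-emergence.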

[9] = test system: Brachiaria decumbens; test: greenhouse post-emergence treatment, BRADC; settings: 20 DAT, BRADC
How it was run: (§9)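 Visual herbicidal effect (0–100) recorded over a 2 to 4 week test period after foliar treatment at plant heights of 3 to 15 cm. Expected combination effects derived by the Colby formula from single-component effects X and Y.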

[10] = test system: Bromus sterilis; test: greenhouse post-emergence treatment, BROST; settings: solo, WG 75%, BROST, 20 DAT
How it was run: as §8

[11] = test system: Stellaria media; test: greenhouse pre-emergence treatment, STEME; settings: 21 DAT
Excerpt: as §1, §2, §3, §4, §5, §6, §7

[12] = test system: Setaria viridis; test: greenhouse pre-emergence treatment, SETVI; settings: SETVI; for % activity: 21 DAT
Excerpt: as §1, §2, §3, §4, §5, §6, §7

[13] = test system: Poa annua; test: greenhouse post-emergence treatment, POAAN; settings: solo, WG 75%, POAAN, 12.5 gai/ha, 20 DAT
How it was run: as §9

[14] = test system: Digitaria sanguinalis; test: greenhouse pre-emergence treatment, DIGSA; settings: DIGSA; for % activity: 21 DAT
Excerpt: as §1, §2, §3, §4, §5, §6, §7

[15] = test system: Matricaria chamomilla; test: greenhouse post-emergence treatment, MATCH; settings: solo, WG 75%, MATCH, 20 DAT
How it was run: (§10)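 Foliar application to greenhouse-grown plants 3–15 cm tall in humus-containing loamy sand; response assessed on a 0–100 scale after 2–4 weeks, with Colby's E=X+Y−(X·Y/100) as the additive expectation.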

[16] = test system: Digitaria sanguinalis; test: greenhouse post-emergence treatment, DIGSA; settings: solo, WG 75%, DIGSA, 100 gai/ha, 20 DAT
How it was run: as §8

[17] = test system: Bromus sterilis; test: greenhouse pre-emergence treatment, BROST; settings: solo, WG 75%, BROST, 50 gai/ha, 21 DAT
Excerpt: as §1, §2, §3, §4, §5, §6, §7

[18] = test system: Papaver rhoeas; test: greenhouse post-emergence treatment, PAPRH; settings: solo, WG 75%, PAPRH, 20 DAT
How it was run: as §10

[19] = test system: Setaria viridis; test: greenhouse post-emergence treatment, SETVI; settings: 20 DAT, SETVI
How it was run: as §8

[20] = test system: Avena fatua; test: greenhouse pre-emergence treatment, AVEFA; settings: AVEFA, trifludimoxazin solo 36 gai/ha, 20 DAT
Excerpt: as §1, §2, §3, §4, §5, §6, §7

[21] = solo, WG 75%, 12.5 gai/ha, 21 DAT
[22] = solo, WG 75%, 25 gai/ha, 21 DAT
[23] = solo, WG 75%, 50 gai/ha, 21 DAT
[24] = trifludimoxazin solo 18 gai/ha, 20 DAT
[25] = trifludimoxazin solo 36 gai/ha, 20 DAT
[26] = 4.5 gai/ha (SC 500 g/l), 20 DAT
[27] = 4.5 gai/ha (SC 500 g/l), 20 DAT, Table X2

C#CCN1C(=O)COc2cc(F)c(N3C(=O)C4=C(CCCC4)C3=O)cc21 [flumioxazin]
inhibition at 30 g/ha ([1]; Lolium multiflorum, 480 h, flumioxazin WG 51% solo 30 gai/ha): 65%
inhibition at 30 g/ha ([2]; Helianthus annuus, 480 h, 20 DAT, flumioxazin WG 51% solo 30 gai/ha): 50%
% herbicidal activity (weed control, 0-100 scale) at […] ([3]; Galium aparine, 480 h, 20 DAT, flumioxazin WG 51% solo 7.5 gai/ha): 0%
% herbicidal activity (weed control, 0-100 scale) at 30 g/ha ([3]; Galium aparine, 480 h, 20 DAT, flumioxazin WG 51% solo 30 gai/ha): 65%
percent weed control (herbicidal activity, 0-100 scale) at 3.75 g/ha ([4]; Ambrosia artemisiifolia, 480 h, 20 DAT, flumioxazin WG 51% solo 3.75 gai/ha): 0%
percent weed control (herbicidal activity, 0-100 scale) at […] ([4]; Ambrosia artemisiifolia, 480 h, 20 DAT, flumioxazin WG 51% solo 7.5 gai/ha): 0%
inhibition at […] ([5]; Fallopia convolvulus, 480 h, 20 DAT, flumioxazin WG 51% solo 7.5 gai/ha): 65%
% herbicidal activity (weed control, 0-100 scale) at 15 g/ha ([6]; Urochloa decumbens, 480 h, flumioxazin WG 51% solo 15 gai/ha): 40%
inhibition at 3.75 g/ha [7]: 25%

O=C(Nc1ccc(F)cc1)c1cccc(Oc2cccc(C(F)(F)F)c2)n1 [picolinafen]
% activity ([2]; picolinafen solo 12.5 gai/ha, 21 DAT): 10%
% activity ([2]; picolinafen solo 50 gai/ha, 21 DAT): 15%
% activity [2, 21]: 10%
% activity [2, 22]: 20%
% activity [2, 23]: 15%
% activity [8]: 10%
% activity ([9]; picolinafen WG 75% solo 25 gai/ha): 35%
% activity ([9]; picolinafen WG 75% solo 50 gai/ha): 50%
% activity ([9]; solo, WG 75%, 25 gai/ha): 35%
% activity ([9]; solo, WG 75%, 50 gai/ha): 50%
% activity [3, 21]: 0%
% activity [3, 22]: 0%
% activity ([10]; 12.5 gai/ha): 0%
% activity ([10]; 25 gai/ha): 0%
% activity ([10]; 50 gai/ha): 10%
% activity ([10]; 100 gai/ha): 20%
% activity ([4]; picolinafen solo 50 gai/ha): 0%
% activity ([4]; solo, WG 75%, 12.5 gai/ha): 0%
% activity ([4]; solo, WG 75%, 25 gai/ha): 0%
% activity ([4]; solo, WG 75%, 50 gai/ha): 0%
% activity ([11]; picolinafen solo 25 gai/ha): 20%
% activity ([11]; picolinafen solo 50 gai/ha): 50%
% activity ([11]; picolinafen solo 100 gai/ha): 65%
% activity [5, 23]: 20%
% activity ([12]; picolinafen solo 25 gai/ha): 70%
% activity ([12]; picolinafen solo 50 gai/ha): 80%
% activity ([12]; picolinafen solo 100 gai/ha): 85%
% activity ([12]; picolinafen solo 250 gai/ha): 70%
% activity ([12]; solo, WG 75%, 12.5 gai/ha): 45%
% activity ([12]; solo, WG 75%, 50 gai/ha): 80%
% activity [13]: 40%
% activity ([14]; picolinafen solo 12.5 gai/ha): 0%
% activity ([14]; solo, WG 75%, 25 gai/ha): 30%
% activity ([14]; solo, WG 75%, 50 gai/ha): 60%
% activity ([15]; 12.5 gai/ha): 0%
% activity ([15]; 25 gai/ha): 20%
% activity ([15]; 50 gai/ha): 20%
% activity [16]: 75%
% activity [17]: 20%
% activity ([18]; 12.5 gai/ha): 35%
% activity ([18]; 25 gai/ha): 40%
% activity ([18]; 50 gai/ha): 55%
% activity ([18]; 100 gai/ha): 80%
% activity ([19]; picolinafen WG 75% solo 12.5 gai/ha): 30%
% activity ([19]; solo, WG 75%, 12.5 gai/ha): 30%
% activity ([19]; solo, WG 75%, 50 gai/ha): 80%

C#CCN1C(=O)C(F)(F)Oc2cc(F)c(-n3c(=O)n(C)c(=S)n(C)c3=O)cc21 [trifludimoxazin]
% activity ([1]; trifludimoxazin solo 36 gai/ha): 75%
% activity, solo application ([2]; 18 gai/ha (SC 500 g/l), 20 DAT, Table X2): 0%
% activity [2, 24]: 0%
% activity [2, 25]: 30%
% activity, solo application [3, 26]: 0%
% activity, solo application ([3]; 9 gai/ha (SC 500 g/l), 20 DAT): 0%
% activity, solo application ([3]; 18 gai/ha (SC 500 g/l), 20 DAT): 0%
% activity, solo application ([3]; 36 gai/ha (SC 500 g/l), 20 DAT): 40%
% activity ([3]; trifludimoxazin solo 4.5 gai/ha, 20 DAT): 0%
% activity ([3]; trifludimoxazin solo 9 gai/ha, 20 DAT): 0%
% activity [3, 24]: 0%
% activity [3, 25]: 40%
% activity, solo application [4, 26]: 0%
% activity, solo application ([4]; 9 gai/ha (SC 500 g/l), 20 DAT): 50%
% activity, solo application ([6]; 9 gai/ha (SC 500 g/l), Table X2): 45%
% activity ([6]; trifludimoxazin solo 18 gai/ha): 50%
% activity ([6]; trifludimoxazin solo 36 gai/ha): 80%
% activity, solo application [12, 27]: 75%
% activity, solo application [14, 27]: 50%
% activity [20]: 50%
